Key:
[1] = Determination of log P values by HPLC on reversed-phase column (formic acid method); assay type: physicochemical; settings: reversed-phase C 18, acidic range (pH 3.4), formic acid eluents, 55° C.; for chromatographic logP: reversed-phase HPLC column (C 18), pH 3.4, HPLC, read-out: logP (HCOOH); for logP (HCOOH): HPLC
Protocol: 1) Description of Method for Determining the Log P Values (Formic Acid Method)
The log P values reported in the table were determined according to EEC-Directive 79/831 Annex V.A8 by HPLC (High Performance Liquid Chromatography) on a reversed-phase column (C 18). […]
Eluent A: acetonitrile+1 ml of formic acid/liter. Eluent B: water+0.9 ml of formic acid/liter.
Gradient: from 10% eluent A/90% eluent B to 95% eluent A/5% eluent B in 4.25 min
The calibration was effected with unbranched alkan-2-ones (with 3 to 16 carbon atoms), whose log P values are known (determination of the log P values on the basis of the retention times by linear interpolation between two successive alkanones). The lambda-max values were determined with reference to the UV spectra from 200 nm to 400 nm in the maxima of the chromatographic signals.

[2] = tested on: green peach aphid (Myzus persicae); assay: Myzus test; assay type: in vivo; settings: application rate 500 g/ha, spray on Chinese cabbage leaf slices, read-out: efficacy (aphids killed)
Protocol: • Solvent: 78.0 parts by weight of acetone • 1.5 parts by weight of dimethylformamide • Emulsifier: 0.5 part by weight of alkylaryl polyglycol ether
To produce an appropriate active ingredient formulation, 1 part by weight of active ingredient is mixed with the amounts of solvent and emulsifier specified and the concentrate is diluted to the desired concentration with emulsifier-containing water.
Chinese cabbage leaf slices (Brassica pekinensis) infested by all stages of the green peach aphid (Myzus persicae) are sprayed with an active ingredient formulation of the desired concentration.
After the desired time, the efficacy in % is determined 100% means that all aphids have been killed; 0% means that no aphids have been killed.

| chromatographic logP [1] | logP (HCOOH) [1] | SMILES | pest or weed control at 500 g/ha [2] [%] |
| --- | --- | --- | --- |
| 1.97 | – | Cc1nc(Cl)sc1C(=O)NCC(F)(F)F | – |
| 0.42 | – | O=C(O)c1cnc(-c2cccnc2)s1 [2-pyridin-3-ylthiazole-5-carboxylic acid] | – |
| 2.15 | – | Cc1nc(-c2cncc(F)c2)sc1C(=O)NCC(F)(F)F [Compound 9] | ≥ 70 |
| 1.39 | – | Cc1nc(-c2cncc(F)c2)sc1C(=O)NCc1ncccn1 [Compound 10] | ≥ 70 |
| 1.24 | – | Cn1nc(-c2cncc(F)c2)cc1C(=O)NCc1ncccn1 [Compound 11] | ≥ 70 |
| 1.89 | – | Cn1nc(-c2cncc(F)c2)cc1C(=O)NCC(C)(F)F [Compound 12] | ≥ 70 |
| 1.75 | – | C=CN(Cc1ncccn1)C(=O)c1cc(-c2cncc(F)c2)nn1C [Compound 13] | ≥ 70 |
| 2.5 | – | Cc1nc(-c2cncc(Cl)c2)sc1C(=O)NCC(F)(F)F [Compound 14] | ≥ 70 |
| 1.69 | – | Cc1nc(-c2cncc(Cl)c2)sc1C(=O)NCc1ncccn1 [Compound 15] | ≥ 70 |
| 2.61 | – | Cc1nc(-c2cncc(Br)c2)sc1C(=O)NCC(F)(F)F [Compound 16] | ≥ 70 |
| 1.8 | – | Cc1nc(-c2cncc(Cl)c2)sc1C(=O)N(C)C [Compound 17] | – |
| 1.87 | – | Cc1nc(-c2cncc(I)c2)sc1C(=O)NCc1ncccn1 [Compound 18] | – |
| 1.49 | – | Cc1nc(-c2cncc(F)c2)sc1C(=O)N(C)C [Compound 19] | – |
| 2.75 | – | Cc1nc(-c2cncc(I)c2)sc1C(=O)NCC(F)(F)F [Compound 20] | – |
| 1.72 | – | Cc1nc(-c2cncnc2)sc1C(=O)N(C)CC(F)(F)F [Compound 21] | ≥ 70 |
| 1.05 | – | Cc1nc(-c2cncnc2)sc1C(=O)NCc1ncccn1 [Compound 22] | ≥ 70 |
| 1 | – | Cc1nc(-c2cncnc2)sc1C(=O)N(C)C [Compound 23] | – |
| 0.91 | – | Cn1nc(-c2cccnc2)cc1C(=O)NCC(C)(F)F [Compound 24] | ≥ 70 |
| 0.65 | – | Cn1nc(-c2cccnc2)cc1C(=O)NCC(F)F [Compound 25] | ≥ 70 |
| 0.54 | – | Cc1nc(CNC(=O)c2cc(-c3cccnc3)nn2C)no1 [Compound 26] | ≥ 70 |
| 0.99 | – | CN(CC(C)(F)F)C(=O)c1cc(-c2cccnc2)nn1C [Compound 27] | ≥ 70 |
| 0.25 | – | Cn1nc(-c2cccnc2)cc1C(=O)NCc1ncccn1 [Compound 28] | ≥ 70 |
| 0.56 | – | Cn1nc(-c2cccnc2)cc1C(=O)NCc1ccon1 [Compound 29] | ≥ 70 |
| 1.09 | – | CN(CC(F)(F)F)C(=O)c1cc(-c2cccnc2)nn1C [Compound 30] | ≥ 70 |
| 1.04 | – | Cn1nc(-c2cccnc2)cc1C(=O)NCC(F)(F)F [Compound 31] | ≥ 70 |
| 1.53 | – | O=C(NCC(F)(F)F)c1nnc(-c2cccnc2)s1 [Compound 32] | ≥ 70 |
| 0.72 | – | O=C(NCC(F)(F)F)c1cc(-c2cccnc2)n[nH]1 [Compound 33] | ≥ 70 |
| 1.84 | – | Cc1nc(-c2cccnc2)sc1C(=O)NC1(C(F)(F)F)CC1 [Compound 34] | ≥ 70 |

| chromatographic logP [1] | logP (HCOOH) [1] | SMILES | pest or weed control at 500 g/ha [2] [%] |
| --- | --- | --- | --- |
| 1.65 | – | Cc1nc(-c2cccnc2)sc1C(=O)N(C)CC(C)(F)F [Compound 35] | ≥ 70 |
| 1.59 | – | Cc1nc(-c2cccnc2)sc1C(=O)NCC(C)(F)F [Compound 36] | ≥ 70 |
| 1.24 | – | Cc1nc(-c2cccnc2)sc1C(=O)NC(C)c1ncccn1 (stereo not drawn) [Compound 37] | ≥ 70 |
| 1.21 | – | Cc1nc(CNC(=O)c2sc(-c3cccnc3)nc2C)no1 [Compound 38] | ≥ 70 |
| 1.63 | – | Cc1nc(-c2cccnc2)sc1C(=O)NCC(F)(F)F [Compound 39] | ≥ 70 |
| 1.05 | – | Cc1nc(-c2cccnc2)sc1C(=O)NCc1ncccn1 [Compound 40] | ≥ 70 |
| 1.48 | – | Cc1nc(-c2cccnc2)sc1C(=O)N(C)CC(F)F [Compound 41] | ≥ 70 |
| 1.81 | – | Cc1nc(-c2cccnc2)sc1C(=O)N(C)CC(F)(F)F [Compound 42] | ≥ 70 |
| 1.69 | – | Cc1nc(-c2cccnc2)sc1C(=O)N(C)CC(F)(F)C(F)F [Compound 43] | ≥ 70 |
| 1.54 | – | CSCCNC(=O)c1sc(-c2cccnc2)nc1C [Compound 44] | ≥ 70 |
| 2.21 | – | CSCC(C)(C)N(C)C(=O)c1sc(-c2cccnc2)nc1C [Compound 45] | ≥ 70 |
| 0.91 | – | CN(C)C(=O)c1cnc(-c2cccnc2)s1 [Compound 46] | ≥ 70 |
| 1.41 | – | Cc1nc(-c2cccnc2)sc1C(=O)N(C)C(C)(C)C#N [Compound 47] | ≥ 70 |
| 1.27 | – | Cc1nc(-c2cccnc2)sc1C(=O)NC(C)C1=NOCCO1 (stereo not drawn) [Compound 49] | ≥ 70 |
| 0.8 | – | Cc1nc(-c2cccnc2)sc1C(=O)NCC1COCCO1 (stereo not drawn) [Compound 50] | ≥ 70 |
| 1.3 | – | COC(=O)C1(NC(=O)c2sc(-c3cccnc3)nc2C)CC1 [Compound 51] | ≥ 70 |
| 1.48 | – | Cc1nc(-c2cccnc2)sc1C(=O)NC(C)(C)C#N [Compound 52] | ≥ 70 |
| 1.11 | – | Cc1nc(-c2cccnc2)sc1C(=O)NCCF [Compound 53] | ≥ 70 |
| 1.16 | – | Cc1nc(-c2cccnc2)sc1C(=O)N[C@H]1C[C@@H]1F [Compound 54] | ≥ 70 |
| 1.03 | – | CCNC(=O)c1cnc(-c2cccnc2)s1 [Compound 55] | ≥ 70 |
| – | 1.57 | Cc1nc(-c2cccnc2)sc1C(=O)NC(C#N)C(C)C (stereo not drawn) [Compound 64] | – |
| – | 1.65 | CSC[C@H](C)NC(=O)c1sc(-c2cccnc2)nc1C [Compound 68] | – |
| – | 1.13 | Cc1nc(-c2cccnc2)sc1C(=O)NCC(C)F (stereo not drawn) [Compound 76] | – |
| 2.72 | – | Cc1nc(-c2cncc(Cl)c2)sc1C(=O)N(C)CC(F)(F)F [Preparation Example 2] | – |
| 0.49 | – | CON(C)C(=O)c1cc(-c2cccnc2)nn1C [Preparation Example 6] | – |
| 1.93 | – | CCOC(=O)c1cnc(-c2cccnc2)s1 [ethyl 2-pyridin-3-ylthiazole-5-carboxylate] | – |
| 1.41 | – | CCOC(=O)c1nnc(-c2cccnc2)s1 [ethyl 5-pyridin-3-yl[1,3,4]thiadiazole-2-carboxylate] | – |

Source: patent US9428487B2, “Heteroaromatic amides and thioamides as pesticides” (Bayer Intellectual Property GmbH, priority 2008, dated 2016)
